A short description of this series: Particle size (mean/median diameter, D50) before and after coating. Type of series: physicochemical. An excerpt:
On FIG. 1, the distribution of the particles before and after coating has been represented. As shown in this figure, the set of coated particles has the same distribution as that of the uncoated particles, showing not only that the particles were evenly coated, but also that the amount of coating is less. Thus, it is observed that the mean diameter of the particles before coating is equal to 176 micrometers, while the mean diameter of the coated particles is equal to 180 micrometers. […] FIG. 2 represents in parallel the distribution of the particles before and after coating. As shown in this figure, the set of coated particles has the same distribution as those of the uncoated particles, showing not only that the particles were evenly coated, but also that the amount of coating is less. Thus, it is observed that the mean diameter of the particles before coating is equal to 60 micrometers, while the mean diameter of the coated particles is equal to 75 micrometers. The table below represents the mean size of the ibuprofen particles (D50) before and after coating. FIG. 5 represents in parallel the distribution of the particles before and after coating.

We go through three molecules from patent US20030170312A1, “Method for coating solid particles with a thermofusible agent, and resulting coated solid particles” (priority 2000, published 2003).

For `CC(C)Cc1ccc(C(C)C(=O)O)cc1` (stereo not drawn) [5200I1014, ibuprofen], for the setting “Example 2: ibuprofen with PRECIROL in the proportion of 15%”, the “Mean (D50) size of the ibuprofen particles” value stood at 130.0 μm.
Regarding `CC(=O)Nc1ccc(O)cc1` [compound 99292402, Paracetamol], the “Median (D50) particle size” value (Example 4: paracetamol with Precirol ATO 5, theoretical 6% by mass) is listed as 326.1 μm.
With `CC(C)Cc1ccc(C(C)C(=O)O)cc1` (stereo not drawn) [ibuprofen], the “mean diameter of the particles” value (Example 1: ibuprofen before and after coating with PRECIROL, coating 7% by weight) was found to be 176 micrometers.
